In patent US20120195856A1, “Method of treating patients with cardiovascular illness” (priority 2011, published 2012):
Read-outs that look alike come from different tables or passages of the source.

How the values were obtained:
[1] = design: species or system human; conditions: in vivo
Source text: The use of the antiviral drug is not useful for a longer period, as the remission period begins for the patient and the drug is ineffective.

[2] = type: in vivo, human
Source text: Example 1. Patient, came to the clinic with a diagnosis of ischemic heart disease. Exertional angina, functional class III. Postinfarction cardiosclerosis (myocardial infarction in 1981). Atherosclerosis of the coronary arteries. Circulatory deficiency stage IIA. Cerebral atherosclerosis. Chronic cerebral impairment. Symptomatic hypertension. At arrival, complained of a squeezing pain in the area of the heart with radiation to the right hand, which arise both at rest and during physical activity (up to 4-5 times per day) and were relieved by taking nitroglycerin (up to 8 times per day), as well as shortness of breath while walking, vertigo, periodic headaches, ringing in the ears, irritability, and insomnia. The patient was prescribed treatment: anti-angina drugs (Nitrosorbidum 30 mg/day, Corinfar 30 mg/day; also has hypotensive activity), and Valacyclovir 2 tablets (1.0 g) three times a day. […] The atherogenesis index fell from 4.74 to 3.38, and there was an increase in cholesterol/HDL from 1.17 mmol/l to 1.20 mmol/l. During the treatment process, a slowing in the free-radical acidization of lipids was seen; the content of serum malondialdehyde fell from 0.50 mcmol/ml to 0.31 mcmol/ml, diethynoid conjugates fell from 1.332 mcmol/ml to 0.70 mcmol/ml, triethynoid conjugates declined from 0.23 mcmol/ml to 0.14 mcmol/ml; the a-tocopherol content recovered from 2.69 mcmol/ml to 4.32 mcmol/ml; the glutathione reductase activity went from 12.4 mcmol/l h to 22.0 mcmol/l h. On the electrocardiogram, a decrease in the T index from 35.0 to 0, in the SST from 11.0 to 0, and in the NST from 10.0 to 0 were seen. […] Angina pain and shortness of breath not present; nitroglycerine tablets not used. Vertigo and headaches had decreased.
Thus in the process of treatment, in the patient who took Valacyclovir, lipidogram, peroxide acidization of lipids, electrocardiography, and tetrapolar rheography indicators normalized. Valacyclovir side effects were not observed.

[3] = Patient M.
[4] = Example 4: patient with ischemic heart disease, lipid and liver complexes after Zocor and then combination anti-viral therapy; type: in vivo, human; conditions: after six months of Zocor 20 mg/day, goal indicator 4.0

long-term remission of the illness or substantial positive stabilization of the patient's condition [1]	SMILES	serum malondialdehyde content ([2]; after Valacyclovir 1.0 g three times a day + anti-angina drugs, before 0.50) [mcmol/ml]	LDL in blood serum ([2]; after Valacyclovir 1.0 g three times a day + anti-angina drugs, before 1.55) [mmol/L]	cholesterol/LDL in blood serum ([2]; after Valacyclovir 1.0 g three times a day + anti-angina drugs, before 3.99) [mmol/L]	electrocardiogram NST ([2]; after Valacyclovir 1.0 g three times a day + anti-angina drugs, before 10.0)	electrocardiogram SST ([2]; after Valacyclovir 1.0 g three times a day + anti-angina drugs, before 11.0)	electrocardiogram T index ([2]; after Valacyclovir 1.0 g three times a day + anti-angina drugs, before 35.0)	side effects ([2]; human, in vivo)	lipidogram, peroxide acidization of lipids, electrocardiography, and tetrapolar rheography indicators ([2]; in the process of treatment, patient who took Valacyclovir)	vertigo and headaches ([2]; within seven weeks, Valacyclovir 1.0 g three times a day + anti-angina drugs)	use of nitroglycerine tablets ([2]; within seven weeks, before up to 8 times per day)	total cholesterol ([3]; after Valacyclovir 1.0 g 3×/day for 3 courses of 7 days, with standard treatment, goal value 5.0) [mmol/L]	total cholesterol ([3]; after six months of simvastatin 10 mg/day, goal indicator 5.0) [mmol/L]	total cholesterol [4] [mmol/L]
does not provide long-term remission	Nc1nc2c(ncn2COCCO)c(=O)[nH]1 [Acyclovir]	–	–	–	–	–	–	–	–	–	–	–	–	–
does not provide long-term remission	CC(C)[C@H](N)C(=O)OCCOCn1cnc2c(=O)[nH]c(N)nc21 [Valacyclovir]	0.31	0.47	3.68	0	0	0	not observed	normalized	decreased	not used	4.7	–	–
–	CCC(C)(C)C(=O)O[C@H]1C[C@@H](C)C=C2C=C[C@H](C)[C@H](CC[C@@H]3C[C@@H](O)CC(=O)O3)[C@H]21 [simvastatin]	–	–	–	–	–	–	–	–	–	–	–	4.9	3.9
